Assay results taken from US20220202811A1, “TREATMENT FOR RETINOIC ACID RECEPTOR-RELATED ORPHAN RECEPTOR Ɣ (RORƔ)-DEPENDENT CANCERS” (The Regents of the University of California, priority 2019, published 2022).
Entries after “also recorded” stand apart in the source; their conditions may differ.

Key:
[1] = test system: pancreatic cancer cell; test: in vitro sphere formation, antagonists of Table 2; assay type: cell-based, mouse; design: key: ✓✓✓✓: dose response observed; growth suppressed by 8-fold or more relative to control; ✓✓✓: dose response observed; growth suppressed between 4-fold and 8-fold relative to control; ✓✓: dose response observed; growth suppressed by less than 4-fold relative to control; ✓: response observed only at highest drug dose tested; —: no detectable response; conditions: extent of growth suppression relative to control
Description: Pancreatic tumorsphere formation assays were performed and modified from (Rovira et al., 2010). Briefly, low-passage (<6 passages) WT or REM2-KP^f/fC cell lines were infected with lentiviral particles containing shRNAs; positively infected (red) cells were sorted 72 hours after transduction. 100-300 infected cells were suspended in tumorsphere media: 100 μl DMEM F-12 (Gibco, Life Technologies) containing 1× B-27 supplement (Gibco, Life Technologies), 3% FBS, 100 μM B-mercaptoethanol (Gibco, Life Technologies), 1× non-essential amino acids (Gibco, Life Technologies), 1× N2 supplement (Gibco, Life Technologies), 20 ng/ml EGF (Gibco, Life Technologies), 20 ng/ml bFGF2 (Gibco, Life Technologies), and 10 ng/ml ESGRO mLIF (Thermo Fisher). Cells in media were plated in 96-well ultra-low adhesion culture plates (Costar) and incubated at 37° C. for 7 days. KP^f/fC in vitro tumorsphere formation studies were conducted at a minimum of n=3 independent wells per cell line across two independent shRNA of n=3 wells; however, the majority of these experiments were additionally completed in >1 independently-derived cell lines n=3, at n=3 wells per shRNA.

[2] = test system: pancreatic cancer cell; test: in vivo tumor growth, antagonists of Table 2; design: species or system mouse; key: ✓✓✓✓: dose response observed; growth suppressed by 8-fold or more relative to control; ✓✓✓: dose response observed; growth suppressed between 4-fold and 8-fold relative to control; ✓✓: dose response observed; growth suppressed by less than 4-fold relative to control; ✓: response observed only at highest drug dose tested; —: no detectable response; conditions: extent of growth suppression relative to control
[3] = test system: primary patient-derived PDX1356 organoids; test: PDX1356 organoid assay; assay type: cell-based, human; conditions: 0.05 nM gemcitabine alone
Description: (§1) PDX1535 organoids were derived from a patient of pancreatic cancer. Primary patient organoids were established by digesting patient-derived xenografts for 1 hour at 37° C. in RPMI containing 2.5% FBS, 5 mg/ml Collagenase II, and 1.25 mg/ml Dispase II, followed by passage through a […] mesh filter. Cells were plated at a density of 1.5×10^5 cells per 50 μl Matrigel. After domes were solidified, growth medium was added as follows: RPMI containing 50% Wnt3a conditioned media, 10% RSpondin1-conditioned media, 2.5% FBS, 50 ng/ml EGF, 5 mg/ml Insulin, 12.5 ng/ml hydrocortisone, and 14 μM Rho Kinase Inhibitor. After establishment, organoids were passaged and maintained. Briefly, organoids were isolated using Cell Recovery Solution (Corning 354253), then dissociated into single cell suspension with TrypLE Express (ThermoFisher 12604) supplemented with 25 μg/ml DNase I (Roche) and 14 μM Rho Kinase Inhibitor (Y-27632, Sigma). Cells were split 1:2 into 20 μl domes plated on pre-warmed 48-well plates. Domes were incubated at 37° C. for 5 min, then covered with human complete organoid feeding media without Wnt3a-conditioned media.
As shown in FIGS. 65-66, the anti-cancer effect of JTE-151 was also tested using the organoid assay on primary patient-derived PDX1356 pancreatic cancer cells. […] The volume of organoids was expressed as relative to control.

[4] = test system: primary patient-derived PDX1535 organoids; test: PDX1535 organoid assay; assay type: cell-based, human
Description: as §1, with “media. […] The organoids were imaged and measured at the end of treatment. […] Moreover, the anti-cancer effect of JTE-151 was determined in an organoid assay using pancreatic cancer cells derived from mice bearing primary patient-derived xenografts.” for “media.”

[5] = test system: KP^f/fC derived flank tumors; test: KP^f/fC flank tumors in immunocompetent mice; assay type: in vivo, mouse; conditions: gemcitabine alone

Structure (SMILES) | in vitro sphere formation [1] | in vivo tumor growth [2] | also measured
O=C1/C(=C/c2ccccc2)C(NC2CCCCC2)c2ccccc21 (centres unmarked) [BCl] | ✓✓ (dose response observed; growth suppressed by less than 4-fold relative to control) | — | 
CC(C)(C)NC(=O)c1cncn1C1CCN(c2ccc(-c3nnc(C(F)(F)F)o3)cn2)CC1 [Wnk463] | ✓✓ (dose response observed; growth suppressed by less than 4-fold relative to control) |  | 
Nc1ccn([C@@H]2O[C@H](CO)[C@@H](O)C2(F)F)c(=O)n1 [gemcitabine] |  |  | organoid volume [3]: significant reduction; also recorded: visibly decreased; also recorded: visibly reduced; organoid growth ([4]; 0.025 nM gemcitabine alone): decreased PDZ1535 organoid growth, although not statistically significant; organoid volume / growth ([4]; 0.05 nM gemcitabine alone): visibly reduced; also recorded: significant inhibition; cancer stem cell burden [5]: no impact
Oc1c(Br)cc(Br)cc1-c1[nH]c(Br)c(Br)c1Br [Pentabromopseudilin] | ✓✓ (dose response observed; growth suppressed by less than 4-fold relative to control) |  | 
CCc1cc(Cl)c(OC)c(C(=O)NC[C@@H]2CCCN2CC)c1O [Eticlopride] | — | — | 
NCCCCCCCN=C(N)N [GC7] | ✓ |  | 
Cc1c(F)cccc1NC(=O)Nc1ccc(Cl)c(S(=O)(=O)[C@H]2CCCNC2)c1O [Danirixin] | — |  | 
Cl[TeH]1(Cl)(Cl)OCCO1 [AS101] | ✓✓✓ (dose response observed; growth suppressed between 4-fold and 8-fold relative to control) | — | 
